Data as given in US20030144225A1, “Antisense modulation of macrophage inflammatory protein 3-alpha expression” (priority 2001, published 2003).
Strand notation (5' to 3'): a small letter for the sugar, then the base; units joined by * are phosphorothioate-linked, units joined directly phosphodiester-linked; [ ] holds rarer units or linkages, { } end groups; capitals alone tell only the bases. e = 2'-O-(2-methoxyethyl) (MOE); [5mC] = 5-methylcytosine; d = 2'-deoxy (DNA)

What was measured:
[1] = test system: human macrophage inflammatory protein 3-alpha mRNA; experiment: Antisense inhibition of human macrophage inflammatory protein 3-alpha mRNA levels, quantitative real-time PCR (Table 1 screen); assay type: cell-based; settings: averages from two experiments, oligonucleotide concentration not given
[2] = test system: human macrophage inflammatory protein 3-alpha mRNA; experiment: Dose-response inhibition of cytokine-induced macrophage inflammatory protein 3-alpha mRNA expression in NHEK cells; assay type: cell-based; settings: 24 Hr after oligonucleotide treatment, percent inhibition of cytokine-induced control, averages from two experiments; for % Inhibition of cytokine induced macrophage inflammatory protein 3-alpha mRNA expression, 50 nM: 50 nM oligonucleotide; for % Inhibition of cytokine induced macrophage inflammatory protein 3-alpha mRNA expression, 100 nM: 100 nM oligonucleotide; for % Inhibition of cytokine induced macrophage inflammatory protein 3-alpha mRNA expression, 200 nM: 200 nM oligonucleotide

Substance	% INHIB (inhibition of human macrophage inflammatory protein 3-alpha mRNA levels) [1]	% Inhibition of cytokine induced macrophage inflammatory protein 3-alpha mRNA expression, 50 nM [2]	% Inhibition of cytokine induced macrophage inflammatory protein 3-alpha mRNA expression, 100 nM [2]	% Inhibition of cytokine induced macrophage inflammatory protein 3-alpha mRNA expression, 200 nM [2]
150677 (antisense eT*eA*e[5mC]*e[5mC]*e[5mC]*dA*dG*dT*dT*d[5mC]*dT*dT*dT*dG*dG*eG*eA*eG*eT*eG) [compound 150677]	0%			
150678 (antisense eA*eG*eT*eG*eT*dT*dG*dA*dG*dT*dA*d[5mC]*d[5mC]*d[5mC]*dA*eG*eT*eT*e[5mC]*eT) [compound 150678]	34%			
150679 (antisense eA*eG*eA*eT*e[5mC]*dT*dG*d[5mC]*dT*d[5mC]*dA*dG*dT*dG*dT*eT*eG*eA*eG*eT) [compound 150679]	16%			
150680 (antisense e[5mC]*eT*e[5mC]*eA*eA*dA*dG*dA*dA*d[5mC]*dA*dG*dA*dT*d[5mC]*eT*eG*e[5mC]*eT*e[5mC]) [compound 150680]	41%	13%	47%	68%
150681 (antisense eT*eG*eG*eT*eT*dT*dT*dT*dA*dG*d[5mC]*dT*d[5mC]*dA*dA*eA*eG*eA*eA*e[5mC]) [compound 150681]	22%			
150683 (antisense eA*eA*eG*eT*eT*dG*d[5mC]*dT*dT*dG*d[5mC]*dT*dG*d[5mC]*dT*eT*e[5mC]*eT*eG*eA) [compound 150683]	15%			
150684 (antisense e[5mC]*eA*eG*e[5mC]*eA*dG*dT*d[5mC]*dA*dA*dA*dG*dT*dT*dG*e[5mC]*eT*eT*eG*e[5mC]) [compound 150684]	15%			
150685 (antisense eG*eT*eG*eT*eG*dA*dA*dA*dG*dA*dT*dG*dA*dT*dA*eG*e[5mC]*eA*eT*eT) [compound 150685]	0%			
150686 (antisense eA*eT*eT*e[5mC]*e[5mC]*dA*dG*dA*dA*dA*dA*dG*d[5mC]*d[5mC]*dA*e[5mC]*eA*eG*eT*eT) [compound 150686]	1%			
150687 (antisense eG*eT*e[5mC]*e[5mC]*eA*dA*dT*dT*d[5mC]*d[5mC]*dA*dT*dT*d[5mC]*d[5mC]*eA*eG*eA*eA*eA) [compound 150687]	34%	19%	51%	65%
150688 (antisense e[5mC]*eT*eT*eG*eG*dG*d[5mC]*dT*dA*dT*dG*dT*d[5mC]*d[5mC]*dA*eA*eT*eT*e[5mC]*e[5mC]) [compound 150688]	46%	43%	69%	80%
150689 (antisense e[5mC]*eA*eA*eG*eG*dT*dT*d[5mC]*dT*dT*dT*d[5mC]*dT*dG*dT*eT*e[5mC]*eT*eT*eG) [compound 150689]	41%	16%	60%	77%
150692 (antisense eG*e[5mC]*eA*eA*eT*dA*dT*dG*dA*dA*dT*d[5mC]*dA*dA*d[5mC]*eT*eT*e[5mC]*eA*eT) [compound 150692]	39%	34%	59%	73%
150694 (antisense eA*eT*eG*eT*eG*dA*dT*dG*d[5mC]*dT*dT*dA*dA*dA*d[5mC]*eA*eA*eA*eG*e[5mC]) [compound 150694]	30%			
150695 (antisense e[5mC]*eA*e[5mC]*eA*eG*dA*dA*dA*dA*d[5mC]*d[5mC]*dT*dA*d[5mC]*dA*eG*e[5mC]*eT*eA*eT) [compound 150695]	11%			
150696 (antisense eG*e[5mC]*eA*e[5mC]*eT*dA*dA*dA*d[5mC]*d[5mC]*dA*dA*dA*dA*dT*eA*eG*e[5mC]*eT*eT) [compound 150696]	27%			

Substance	% INHIB (inhibition of human macrophage inflammatory protein 3-alpha mRNA levels) [1]	% Inhibition of cytokine induced macrophage inflammatory protein 3-alpha mRNA expression, 50 nM [2]	% Inhibition of cytokine induced macrophage inflammatory protein 3-alpha mRNA expression, 100 nM [2]	% Inhibition of cytokine induced macrophage inflammatory protein 3-alpha mRNA expression, 200 nM [2]
150697 (antisense eG*e[5mC]*eA*eA*eG*dA*dA*dA*dG*dT*d[5mC]*d[5mC]*dA*dT*dA*eT*eA*eA*eT*e[5mC]) [compound 150697]	18%			
150698 (antisense eG*e[5mC]*eA*eA*eT*dT*dA*d[5mC]*dA*dA*d[5mC]*dA*dA*dT*dT*eT*eA*eG*eG*eA) [compound 150698]	21%			
ISIS 150678: 2′-MOE gapmer, phosphorothioate, 5-methylcytidines; AGTGTTGAGTACCCAGTTCT (antisense eA*eG*eT*eG*eT*dT*dG*dA*dG*dT*dA*d[5mC]*d[5mC]*d[5mC]*dA*eG*eT*eT*e[5mC]*eT)	at least 20%			
ISIS 150680: 2′-MOE gapmer, phosphorothioate, 5-methylcytidines; CTCAAAGAACAGATCTGCTC (antisense e[5mC]*eT*e[5mC]*eA*eA*dA*dG*dA*dA*d[5mC]*dA*dG*dA*dT*d[5mC]*eT*eG*e[5mC]*eT*e[5mC])	at least 20%			
ISIS 150681: 2′-MOE gapmer, phosphorothioate, 5-methylcytidines; TGGTTTTTAGCTCAAAGAAC (antisense eT*eG*eG*eT*eT*dT*dT*dT*dA*dG*d[5mC]*dT*d[5mC]*dA*dA*eA*eG*eA*eA*e[5mC])	at least 20%			
ISIS 150682: 2′-MOE gapmer, phosphorothioate, 5-methylcytidines; GTACAGCACATGGTTTTAG	at least 20%			
ISIS 150687: 2′-MOE gapmer, phosphorothioate, 5-methylcytidines; GTCCAATTCCATTCCAGAAA (antisense eG*eT*e[5mC]*e[5mC]*eA*dA*dT*dT*d[5mC]*d[5mC]*dA*dT*dT*d[5mC]*d[5mC]*eA*eG*eA*eA*eA)	at least 20%			
ISIS 150688: 2′-MOE gapmer, phosphorothioate, 5-methylcytidines; CTTGGGCTATGTCCAATTCC (antisense e[5mC]*eT*eT*eG*eG*dG*d[5mC]*dT*dA*dT*dG*dT*d[5mC]*d[5mC]*dA*eA*eT*eT*e[5mC]*e[5mC])	at least 20%			
ISIS 150689: 2′-MOE gapmer, phosphorothioate, 5-methylcytidines; CAAGGTTCTTTCTGTTCTTG (antisense e[5mC]*eA*eA*eG*eG*dT*dT*d[5mC]*dT*dT*dT*d[5mC]*dT*dG*dT*eT*e[5mC]*eT*eT*eG)	at least 20%			
ISIS 150690: 2′-MOE gapmer, phosphorothioate, 5-methylcytidines; CTGAAACCTCCAACCCCAGC	at least 20%			
ISIS 150692: 2′-MOE gapmer, phosphorothioate, 5-methylcytidines; GCAATATGAATCAACTTCAT (antisense eG*e[5mC]*eA*eA*eT*dA*dT*dG*dA*dA*dT*d[5mC]*dA*dA*d[5mC]*eT*eT*e[5mC]*eA*eT)	at least 20%			
ISIS 150693: 2′-MOE gapmer, phosphorothioate, 5-methylcytidines; ACTATGATGCAATATGAATC (antisense eA*e[5mC]*eT*eA*eT*dG*dA*dT*dG*d[5mC]*dA*dA*dT*dA*dT*eG*eA*eA*eT*e[5mC])	at least 20%			
ISIS 150694: 2′-MOE gapmer, phosphorothioate, 5-methylcytidines; ATGTGATGCTTAAACAAAGC (antisense eA*eT*eG*eT*eG*dA*dT*dG*d[5mC]*dT*dT*dA*dA*dA*d[5mC]*eA*eA*eA*eG*e[5mC])	at least 20%			
ISIS 150696: 2′-MOE gapmer, phosphorothioate, 5-methylcytidines; GCACTAAACCAAAATAGCTT (antisense eG*e[5mC]*eA*e[5mC]*eT*dA*dA*dA*d[5mC]*d[5mC]*dA*dA*dA*dA*dT*eA*eG*e[5mC]*eT*eT)	at least 20%			
ISIS 150698: 2′-MOE gapmer, phosphorothioate, 5-methylcytidines; GCAATTACAACAATTTAGGA (antisense eG*e[5mC]*eA*eA*eT*dT*dA*d[5mC]*dA*dA*d[5mC]*dA*dA*dT*dT*eT*eA*eG*eG*eA)	at least 20%			
